Measured values: paper PMC10742973 (International Journal of Molecular Sciences, 2023)

Biological target: T1, MtMetAP1c (Mycobacterium tuberculosis, UniProt P9WK19)
T1 construct: gene map
Experiment: biochemical
Settings: read-out: IC50 (μM) / MtMetAP1c + 100 μM CoCl2

T1 sequence (P9WK19 whole entry): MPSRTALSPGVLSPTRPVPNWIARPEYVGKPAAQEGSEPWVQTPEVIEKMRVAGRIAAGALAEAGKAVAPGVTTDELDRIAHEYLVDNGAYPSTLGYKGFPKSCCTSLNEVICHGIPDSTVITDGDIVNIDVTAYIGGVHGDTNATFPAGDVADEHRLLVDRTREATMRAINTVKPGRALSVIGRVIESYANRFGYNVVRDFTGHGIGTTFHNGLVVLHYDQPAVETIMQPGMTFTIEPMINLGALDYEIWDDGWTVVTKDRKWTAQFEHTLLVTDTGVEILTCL

Cc1nc(-c2ccccn2)nc(N(C)Cc2ccccc2)c1Cl [OJT008, N-benzyl-5-chloro-N,6-dimethyl-2-pyridin-2-ylpyrimidin-4-amine]
IC50: 11.8 ± 1.3 µM
